Structures are written as SMILES. ≈ marks a conversion by molar mass, not a printed value. Where two headings read alike, the source gives them in different places.

Series [1] is described as follows: Solubility of selected materials in water, expressed in percent by weight at 20° C. The series is classed as physicochemical.
Series [2] in a line: Solubility of water in the material, percent by weight at 20° C. The series is classed as physicochemical. As to conditions: water dissolved in the additive.
For series [3] the following is noted: 20° C.; cited from earlier work.
Series [4] can be described thus: Surface tension as measured by the duNouy tensiometer device. It counts as physicochemical. The text has this: In continuous dampening systems, the dampening solution has a surface tension of from about 40 to 50 dynes/cm or less as measured by the duNouy tensiometer device. Isopropyl alcohol has an undiluted surface tension of about 21 dynes/cm and isopropyl alcohol at about 10 to 30 percent by volume in water has a surface tension of between 40 to 50 dynes/cm. […] The point where the optimum ink-water balance control is obtained depends on a combination of complicated factors not yet precisely known. These factors include the design and speed of the press, design of the dampening system, the nature and amount of concentrates that are used in the dampening solution, the nature of the form being printed and the experience of the operator. A typical lower limit of effective use of isopropyl alcohol in continuous flow dampening systems is between about 10 to 15 percent by volume. This corresponds to surface tension values in the range of about 40 to 50 dyne/cm.

For series [5] the following is noted: cited from earlier work.
A short description of series [6]: Solubility of the material in heptane. The series is classed as physicochemical. The conditions noted are these: 20° C.

With `CCCC(O)C(CC)CO` (stereo not drawn) [2-ethyl-1,3-hexanediol], in series [1] (water, read-out: Sol. in Water), the solubility is 42 mg/mL (≈ 287 mM). Also, the “Sol. of Water in (material)” value in series [2] came to 12 percent by weight.

In the case of `CC(C)O` [isopropyl alcohol], the vapor pressure result in series [3] is reported as “about 30 mm of Hg”. The surface tension in series [4] (about 10 to 30 percent by volume in water) is recorded as 40 to 50 dynes/cm; in series [4] (lower limit of effective use, about 10 to 15 percent by volume), 40 to 50 dyne/cm; in series [4] (undiluted), “about 21 dynes/cm”. The heat of vaporization in series [5] (at its boiling point of 82° C.) was 164 callories/gm.

Regarding `CCCCCCOCCO` [n-hexyl Cellosolve, n-hexoxyethylene glycol], the “Sol. in Water” value in series [1] is listed as 1.0 percent by weight. The “Sol. in Heptane” value in series [6] was “Complete”. In addition, in series [2], the “Sol. of Water in (material)” value was 19 percent by weight.

As for `O` [water], the vapor pressure in series [3] was ~18 mm of Hg. Further, the heat of vaporization in series [5] (at 100° C.) is reported as 540 calories/gm.

(Values after patent publication US4278467A, “Substitutive additives for isopropyl alcohol in fountain solution for lithographic offset printing” (priority 1979, dated 1981).)
